The record followed here is patent US20240239772A1, “PROTEASE INHIBITORS AND METHODS OF USE” (The Cleveland Clinic Foundation, priority 2021, published 2024).

The first assay has as its target SARS-CoV-2 3CLpro (Severe acute respiratory syndrome coronavirus 2 (2019-nCoV) (SARS-CoV-2), UniProt P0DTD1). Nature of the assay: biochemical. Format: biochemical.
Conditions: not given
In turn, `CC(c1cc(F)cc(Cl)c1)N(C(=O)Cn1nnc2ccccc21)c1ccc(-c2c[nH]cn2)cc1` (racemic) [Compound 73, 2-(benzotriazol-1-yl)-N-[4-(1H-imidazol-4-yl)phenyl]-N-[rac-(1R)-1-(3-chloro-5-fluoro-phenyl)ethyl]acetamide] displayed an IC50 of 100 nM.

Still in this assay, the particulars now being: read-out: SARS-CoV-2 IC50.
In the case of `O=C(Cn1nnc2ccccc21)N(Cc1ccsc1)c1ccc(-c2ccc[nH]c2=O)cc1` [Compound 17, 2-(1H-Benzo[d][1,2,3]triazol-1-yl)-N-(4-(2-oxo-1,2-dihydropyridin-3-yl)phenyl)-N-(thiophen-3-ylmethyl)acetamide], the IC50 was found to be 920 ± 210 nM.
As to `Cn1cc(-c2ccc(N(Cc3ccsc3)C(=O)Cn3nnc4ccccc43)cc2)cn1` [Compound 18, 2-(Benzotriazol-1-yl)-N-[4-(1-methylpyrazol-4-yl)phenyl]-N-(3-thienylmethyl)acetamide], the IC50 worked out at 20400 ± 420 nM.
Turning to `Cn1cnc(-c2ccc(N(Cc3ccsc3)C(=O)Cn3nnc4ccccc43)cc2)c1` [Compound 20, 2-(Benzotriazol-1-yl)-N-[4-(1-methylimidazol-4-yl)phenyl]-N-(3-thienylmethyl)acetamide], the IC50 stood at 9550 ± 990 nM.
Turning to `CC(C)CCN(C(=O)Cn1nnc2ccccc21)c1ccc(-c2cccnc2)cc1` [Compound 22, 2-(1H-Benzo[d][1,2,3]triazol-1-yl)-N-isopentyl-N-(4-(pyridin-3-yl)phenyl)acetamide], the 50% inhibitory concentration (IC50) was 4620 ± 130 nM.
The same measure, in the same setting: then `O=C(Cn1nnc2ccccc21)N(CC1CCC1)c1ccc(-c2cccnc2)cc1` [Compound 24, 2-(1H-Benzo[d][1,2,3]triazol-1-yl)-N-(cyclobutylmethyl)-N-(4-(pyridin-3-yl)phenyl)acetamide], with 830 ± 30 nM; and `O=C(Cn1nnc2ccccc21)N(CC1CCCC1)c1ccc(-c2cccnc2)cc1` [Compound 25, 2-(1H-Benzo[d][1,2,3]triazol-1-yl)-N-(cyclopentylmethyl)-N-(4-(pyridin-3-yl)phenyl)acetamide], with 1160 ± 190 nM; and `O=C(Cn1nnc2ccccc21)N(Cc1cscn1)c1ccc(-c2cccnc2)cc1` [Compound 27, 2-(Benzotriazol-1-yl)-N-[4-(3-pyridyl)phenyl]-N-(thiazol-4-ylmethyl)acetamide], with 1590 ± 440 nM.
For `O=C(Cn1nnc2ccccc21)N(Cc1ccc(F)c(Cl)c1)c1ccc(-c2cccnc2)cc1` [Compound 29, 2-(Benzotriazol-1-yl)-N-[(3-chloro-4-fluoro-phenyl)methyl]-N-[4-(3-pyridyl)phenyl]acetamide], the IC50 was 8530 ± 1820 nM.
The same measure, in the same setting: then `O=C(Cn1nnc2ccccc21)N(Cc1cc(Cl)cc(Cl)c1)c1ccc(-c2cccnc2)cc1` [Compound 32, 2-(Benzotriazol-1-yl)-N-[(3,5-dichlorophenyl)methyl]-N-[4-(3-pyridyl)phenyl]acetamide], with 176 ± 25 nM.
Turning to `Cc1cc(Cl)cc(CN(C(=O)Cn2nnc3ccccc32)c2ccc(-c3cccnc3)cc2)c1` [Compound 33, 2-(Benzotriazol-1-yl)-N-[(3-chloro-5-methyl-phenyl)methyl]-N-[4-(3-pyridyl)phenyl]acetamide], the IC50 was 312 ± 73 nM.
With `O=C(Cn1nnc2ccccc21)N(Cc1cncc(Cl)c1)c1ccc(-c2cccnc2)cc1` [Compound 34, 2-(Benzotriazol-1-yl)-N-[(5-chloro-3-pyridyl)methyl]-N-[4-(3-pyridyl)phenyl]acetamide], the IC50 was 540 ± 70 nM.
Consider `O=C(Cn1nnc2ccccc21)N(CC1CCCC1)c1ccc(-c2ccc[nH]c2=O)cc1` [Compound 68, 2-(1H-benzo[d][1,2,3]triazol-1-yl)-N-(cyclopentylmethyl)-N-(4-(2-oxo-1,2-dihydropyridin-3-yl)phenyl)acetamide], for which the IC50 was 1300 nM.
Turning to `Cc1[nH]ncc1-c1ccc(N(Cc2cccc(Cl)c2)C(=O)Cn2nnc3ccccc32)cc1` [Compound 69, 2-(1H-benzo[d][1,2,3]triazol-1-yl)-N-(3-chlorobenzyl)-N-(4-(5-methyl-1H-pyrazol-4-yl)phenyl)acetamide], the IC50 is 380 nM.
The same measure, in the same setting: the figure for `O=C(Cn1nnc2ccccc21)N(CC1COC1)c1ccc(-c2cccnc2)cc1` [Compound 70, 2-(1H-benzo[d][1,2,3]triazol-1-yl)-N-(oxetan-3-ylmethyl)-N-(4-(pyridin-3-yl)phenyl)acetamide] is 32000 nM.
On to `Cc1ccc(CN(C(=O)Cn2nnc3ccccc32)c2ccc(-c3cccnc3)cc2)cc1Cl` [Compound 71, 2-(1H-benzo[d][1,2,3]triazol-1-yl)-N-(3-chloro-4-methylbenzyl)-N-(4-(pyridin-3-yl)phenyl)acetamide], for which the IC50 is more than 50000 nM.
As to `O=C(Cn1nnc2ccccc21)N(Cc1cc(F)cc(Cl)c1)c1ccc(-c2c[nH]cn2)cc1` [Compound 72, 2-(benzotriazol-1-yl)-N-[(3-chloro-5-fluoro-phenyl)methyl]-N-[4-(1H-imidazol-4-yl)phenyl]acetamide], the IC50 stood at 52 nM.
For the compound `Cc1[nH]cnc1-c1ccc(N(Cc2cc(F)cc(Cl)c2)C(=O)Cn2nnc3ccccc32)cc1` [Compound 74, 2-(benzotriazol-1-yl)-N-[(3-chloro-5-fluoro-phenyl)methyl]-N-[4-(5-methyl-1H-imidazol-4-yl)phenyl]acetamide], the IC50 worked out at 350 nM.
For the compound `O=C(Cn1nnc2ccccc21)N(Cc1cc(F)cc(Cl)c1)c1ccc(-c2c[nH]cn2)cn1` [Compound 75, 2-(benzotriazol-1-yl)-N-[(3-chloro-5-fluoro-phenyl)methyl]-N-[5-(1H-imidazol-4-yl)-2-pyridyl]acetamide], the IC50 came to 62 nM.
For the compound `O=C(Cn1nnc2ccccc21)N(Cc1cccc(C(F)(F)F)c1)c1ccc(-c2c[nH]cn2)cc1` [Compound 76, 2-(benzotriazol-1-yl)-N-[4-(1H-imidazol-4-yl)phenyl]-N-[[3-(trifluoromethyl)phenyl]methyl]acetamide], the IC50 amounted to 270 nM.
For `N#Cc1cccc(CN(C(=O)Cn2nnc3ccccc32)c2ccc(-c3c[nH]cn3)cc2)c1` [Compound 77, 2-(benzotriazol-1-yl)-N-[(3-cyanophenyl)methyl]-N-[4-(1H-imidazol-4-yl)phenyl]acetamide], the IC50 was found to be 640 nM.
Consider `O=C(Cn1nnc2ccccc21)N(Cc1cc(F)cc(F)c1)c1ccc(-c2c[nH]cn2)cc1` [Compound 78, 2-(benzotriazol-1-yl)-N-[(3,5-difluorophenyl)methyl]-N-[4-(1H-imidazol-4-yl)phenyl]acetamide], for which the IC50 is 95 nM.
In the case of `O=C(Cn1nnc2ccccc21)N(CC1CCC1)c1ccc(-c2c[nH]cn2)cc1` [Compound 79, 2-(benzotriazol-1-yl)-N-(cyclobutylmethyl)-N-[4-(1H-imidazol-4-yl)phenyl]acetamide], the IC50 turned out to be 1100 nM.
For the compound `O=C(Cn1nnc2ccccc21)N(Cc1cc(F)ccc1F)c1ccc(-c2c[nH]cn2)cc1` [Compound 80, 2-(benzotriazol-1-yl)-N-[(2,5-difluorophenyl)methyl]-N-[4-(1H-imidazol-4-yl)phenyl]acetamide], the IC50 was 220 nM.
In the case of `O=C(Cn1nnc2ccccc21)N(Cc1cccc(F)c1F)c1ccc(-c2c[nH]cn2)cc1` [Compound 81, 2-(benzotriazol-1-yl)-N-[(2,3-difluorophenyl)methyl]-N-[4-(1H-imidazol-4-yl)phenyl]acetamide], the IC50 came to 400 nM.
On to `O=C(Cn1nnc2ccccc21)N(Cc1cccc(F)c1)c1ccc(-c2c[nH]cn2)cc1` [Compound 82, 2-(benzotriazol-1-yl)-N-[(3-fluorophenyl)methyl]-N-[4-(1H-imidazol-4-yl)phenyl]acetamide], for which the IC50 came out at 360 nM.
As to `O=C(Cn1nnc2ccccc21)N(Cc1cc(Cl)ccc1F)c1ccc(-c2c[nH]cn2)cc1` [Compound 83, 2-(benzotriazol-1-yl)-N-[(5-chloro-2-fluoro-phenyl)methyl]-N-[4-(1H-imidazol-4-yl)phenyl]acetamide], the IC50 was 76 nM.
For `O=C(Cn1nnc2ccccc21)N(Cc1cccc(Cl)c1F)c1ccc(-c2c[nH]cn2)cc1` [Compound 84, 2-(benzotriazol-1-yl)-N-[(3-chloro-2-fluoro-phenyl)methyl]-N-[4-(1H-imidazol-4-yl)phenyl]acetamide], the half-inhibitory concentration (IC50) was 230 nM.
Turning to `O=C(Cn1nnc2ccccc21)N(Cc1cncc(Cl)c1)c1ccc(-c2c[nH]cn2)cc1` [Compound 85, 2-(benzotriazol-1-yl)-N-[(5-chloro-3-pyridyl)methyl]-N-[4-(1H-imidazol-4-yl)phenyl]acetamide], the IC50 is 89 nM.
As to `COc1ccc(Cl)cc1CN(C(=O)Cn1nnc2ccccc21)c1ccc(-c2c[nH]cn2)cc1` [Compound 86, 2-(benzotriazol-1-yl)-N-[(5-chloro-2-methoxy-phenyl)methyl]-N-[4-(1H-imidazol-4-yl)phenyl]acetamide], the IC50 was determined as 180 nM.
Take `COc1cc(Cl)cc(CN(C(=O)Cn2nnc3ccccc32)c2ccc(-c3c[nH]cn3)cc2)c1` [Compound 87, 2-(benzotriazol-1-yl)-N-[(3-chloro-5-methoxy-phenyl)methyl]-N-[4-(1H-imidazol-4-yl)phenyl]acetamide]: the IC50 was determined as 57 nM.
Turning to `CC(c1cc(F)cc(F)c1)N(C(=O)Cn1nnc2ccccc21)c1ccc(-c2c[nH]cn2)cc1` (centres unmarked) [Compound 88, 2-(benzotriazol-1-yl)-N-[1-(3,5-difluorophenyl)ethyl]-N-[4-(1H-imidazol-4-yl)phenyl]acetamide], the IC50 was 160 nM.
`CC(C)CN(C(=O)Cn1nnc2ccccc21)c1ccc(-c2c[nH]cn2)cc1` [Compound 89, 2-(benzotriazol-1-yl)-N-[4-(1H-imidazol-4-yl)phenyl]-N-isobutyl-acetamide]: the IC50 turned out to be 680 nM.
As to `O=C(Cn1nnc2ccccc21)N(Cc1cc(F)cc(F)c1)c1ccc(C2CCNCC2)cc1` [Compound 90, 2-(benzotriazol-1-yl)-N-[(3,5-difluorophenyl)methyl]-N-[4-(4-piperidyl)phenyl]acetamide], the IC50 was found to be 1700 nM.
Take `O=C(Cn1nnc2ccccc21)N(Cc1cc(F)cc(F)c1)c1ccc(C2=CCNC2)cc1` [Compound 91, 2-(benzotriazol-1-yl)-N-[(3,5-difluorophenyl)methyl]-N-[4-(2,5-dihydro-1H-pyrrol-3-yl)phenyl]acetamide]: the IC50 is 130 nM.
